4 compounds from PMC7653338 (Beilstein Journal of Organic Chemistry, 2020) can be followed below.

Entries after “also recorded” stand apart in the source; their conditions may differ. Residues, ends and D or L forms follow the SMILES beside them. *: point of attachment. X1 = O=C(Cc1ccc2ccccc2c1)N[C@H](Cc1ccccc1)C(=O)N[C@H](Cc1ccccc1)C(=O)N[C@H](CCCCN*)C(=O)N[C@H](Cc1ccc(O)cc1)C(=O)O

Data set [1] in a line: lysates of HeLa cells, in 10 mmol of lysis buffer at pH 7.4. To be noted: 37 °C, up to 24 h.
Data set [2] relates to proteinase K. The experiment in a line: proteinase K (5 U/mL) in Tris-HCl buffer, pH 7.0. To be noted: up to 24 h.
Data set [3] has as its system enterokinase (ENTK). The experiment in a line: enterokinase (ENTK).
Data set [4] has as its target enterokinase (ENTK) (Homo sapiens, UniProt P98073). In words: Proteolysis by enterokinase (ENTK). The data set is classed as in vitro ADME. To be noted: Figures S3 and S4. An excerpt: In addition, unlike the FLAG-tag-based branched peptides, 1 and 2 are proteolytic-resistant to enterokinase (ENTK, Figures S3 and S4, Supporting Information File 1).
For data set [5], the target named is proteinase K (Parengyodontium album, UniProt P06873). In words: Enzymatic proteolysis catalyzed by proteinase K, LC-MS. The data set is classed as in vitro ADME. To be noted: for proteolytic products with proteinase K: 5 mM peptide, proteinase K 5 U/mL, Tris-HCl buffer pH 7.0, 24 h, LC-MS. The method, then:
After having obtained the peptides 1 and 2, we examined the enzymatic proteolysis of 1 and 2 catalyzed by proteinase K. We added proteinase K, a powerful endopeptidase, to the solutions of 1 and 2 (5 mM, pH 7.0, in Tris-HCl buffer). […] Then, we conducted a time-dependent CD analysis to examine the change of the secondary structural conformations of 1 and 2 during the proteolysis catalyzed by proteinase K in Tris-HCl buffer at pH 7.0. […] During the transition from micelles to fibrils, the CD signal at 210 nm reverses the sign, likely due to the self-assembly of Nap-ffky to helical fibrils. Analyzing the CD spectra by the Contin-LL analysis program, we estimated the percentage of each conformation, further confirming the trend and the assignment of the dominant conformation. As shown in Figure 2C and Figure 2F, the initial state of peptide 1 has more β-strand conformations than that of peptide 2. With increasing proteolysis time, the CD spectra indicate that the cleavage of 1 or 2 results in more assemblies that favor β-strand conformations (Figure 2D and Figure 2E). In addition, the ratio of the β-strand conformation resulted from the cleavage of 1 being slightly faster than that of 2.
Figure 2 A) LC–MS spectrum of the proteolytic products after 1 (5 mM) was incubated with proteinase K (5 U/mL) for 24 h. B) Time-dependent circular dichroism (CD) spectra of 1 incubated with proteinase K in Tris-HCl buffer at pH 7.0. C) CD simulation of the mixture from the spectra in B. D) LC–MS spectrum of the proteolytic products after 2 (5 mM) was incubated with proteinase K (5 U/mL) for 24 h. E) Time-dependent CD spectra of 2 incubated with proteinase K in Tris-HCl buffer at pH 7.0. F) CD simulation of the mixture from the spectra in E.

Data set [6] is classed as in vitro ADME. The note with it: 500 μM peptide in HeLa cell lysate, 24 h, 37 °C, lysis buffer pH 7.4, LC-MS. As to the method: (§1) We investigated the cell compatibility of 1 and 2 by incubation with two kinds of mammalian cells, HeLa and Saos-2 cells, using the 3-(4,5-dimethylthiazol-2-yl)-2,5-diphenyl tetrazolium bromide (MTT) assay. The cell viability of HeLa and Soas-2 cells after being incubated with 1 (400 μM) for three days are about 90% and 80%, respectively. […] To confirm that 1 and 2 convert from micelles to nanofibers in a cellular environment, we incubated of 1 or 2 at 500 μM in the lysates of HeLa cells (Figure S5, Supporting Information File 1) and examined the amount of each component in % by LC–MS. After 24 h incubation, 44% of 1 or 39% of 2, was cleaved to Nap-ffky, which self-assembles as part for the nanofibers. […] Then, we used confocal laser scanning microscopy (CLSM) to examine whether these compounds deliver RPE into HeLa cells. After mixing R-phycoerythrin (RPE), a red fluorescent protein, with 1 or 2 at different concentrations, we incubated the mixtures with HeLa cells for 2 h and 4 h. […]
reaction and to dissolve the purple formazan. After incubation of the cells at 37 ° C overnight, the absorbance of each well at 595 nm was measured in a multimode microplate reader. Three independent experiments were performed, with an average ± […]
Confocal microscopy: Cells in the exponential growth phase were seeded in a glass-bottomed culture chamber at 1 × 10^5 cells/well. […]

The subject of a further data set is HeLa cells. The experiment in a line: MTT cell viability assay, HeLa cells. Type of data set: cell-based. To be noted: 400 μM, three days, absorbance 595 nm, three independent experiments. As to the method: as §1, with “cells.” for “cells. After mixing R-phycoerythrin (RPE), a red fluorescent protein, with 1 or 2 at different concentrations, we incubated the mixtures with HeLa cells for 2 h and 4 h.”
(§2) Circular dichroism (CD) analysis : CD spectra were recorded ([…]) using a JASCO 810 spectrometer under a nitrogen atmosphere. […] The percentage of the secondary structures in different samples was calculated by the programs provided in DichroWeb. […]
(§3) reaction and to dissolve the purple formazan. After incubation of the cells at 37 ° C overnight, the absorbance of each well at 595 nm was measured in a multimode microplate reader. […]
(In general: Tetrazolium dyes change colour on reduction, which living cells bring about.)

A further data set has as its system Saos-2 cells. The experiment in a line: MTT cell viability assay, Saos-2 cells. Type of data set: cell-based. The note with it: 400 μM, three days, absorbance 595 nm, three independent experiments. As to the method: as §1, with “cells.” for “cells. After mixing R-phycoerythrin (RPE), a red fluorescent protein, with 1 or 2 at different concentrations, we incubated the mixtures with HeLa cells for 2 h and 4 h.”
as §2, §3

Chain of proteinase K (Parengyodontium album, UniProt P06873) (P06873 106-384, species assumed): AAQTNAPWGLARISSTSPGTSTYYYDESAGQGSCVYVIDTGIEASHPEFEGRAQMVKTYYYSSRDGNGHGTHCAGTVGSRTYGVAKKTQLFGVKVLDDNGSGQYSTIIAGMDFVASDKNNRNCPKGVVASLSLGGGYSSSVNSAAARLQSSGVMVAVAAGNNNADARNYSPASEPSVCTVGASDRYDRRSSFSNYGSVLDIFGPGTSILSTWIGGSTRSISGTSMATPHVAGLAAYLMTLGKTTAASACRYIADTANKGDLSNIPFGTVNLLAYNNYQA
Chain of enterokinase (ENTK) (Homo sapiens, UniProt P98073) (P98073 whole entry, species assumed): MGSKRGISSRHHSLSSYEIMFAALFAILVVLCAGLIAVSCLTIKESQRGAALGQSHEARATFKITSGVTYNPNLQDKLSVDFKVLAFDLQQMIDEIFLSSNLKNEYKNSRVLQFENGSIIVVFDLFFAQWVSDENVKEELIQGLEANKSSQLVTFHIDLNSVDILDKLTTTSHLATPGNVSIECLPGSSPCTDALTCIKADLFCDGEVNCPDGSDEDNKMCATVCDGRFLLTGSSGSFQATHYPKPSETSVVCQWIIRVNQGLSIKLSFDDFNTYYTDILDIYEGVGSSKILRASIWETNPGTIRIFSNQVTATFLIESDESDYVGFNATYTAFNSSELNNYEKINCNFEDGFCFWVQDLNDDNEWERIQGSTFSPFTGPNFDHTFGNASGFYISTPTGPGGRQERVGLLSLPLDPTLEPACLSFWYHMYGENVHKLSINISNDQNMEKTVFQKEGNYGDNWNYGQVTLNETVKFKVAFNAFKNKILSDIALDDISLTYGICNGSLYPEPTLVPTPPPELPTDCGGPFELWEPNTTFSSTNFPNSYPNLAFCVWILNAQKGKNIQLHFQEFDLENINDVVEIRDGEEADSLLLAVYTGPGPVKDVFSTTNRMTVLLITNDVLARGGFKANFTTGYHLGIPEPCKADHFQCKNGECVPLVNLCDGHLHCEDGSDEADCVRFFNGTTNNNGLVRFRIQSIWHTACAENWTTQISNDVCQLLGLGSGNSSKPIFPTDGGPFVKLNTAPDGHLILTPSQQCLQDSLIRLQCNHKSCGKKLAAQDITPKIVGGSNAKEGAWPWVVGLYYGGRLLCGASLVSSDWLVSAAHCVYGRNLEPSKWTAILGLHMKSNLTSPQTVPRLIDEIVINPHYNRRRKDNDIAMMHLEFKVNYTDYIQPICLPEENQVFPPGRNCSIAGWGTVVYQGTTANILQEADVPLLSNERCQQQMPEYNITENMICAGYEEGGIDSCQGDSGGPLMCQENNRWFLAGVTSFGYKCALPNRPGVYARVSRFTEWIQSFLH

Nap-ffk(AcNH-DEDDDLLIG)y: the fragment found result in data set [1] was “Nap-ffky, 24 h”; in the data set on proteinase K [2], “Nap-ffky, 24 h”. For the same compound, in the data set with enterokinase (ENTK) [3], the not cleaved entry is “proteolytic-resistant to enterokinase”.

On to `CC[C@H](C)[C@H](NC(=O)[C@H](CC(C)C)NC(=O)[C@H](CC(C)C)NC(=O)[C@H](CC(=O)O)NC(=O)[C@H](CC(=O)O)NC(=O)[C@H](CC(=O)O)NC(=O)[C@H](CCC(=O)O)NC(=O)[C@H](CC(=O)O)NC(C)=O)C(=O)NCC(=O)NCCCC[C@@H](NC(=O)[C@@H](Cc1ccccc1)NC(=O)[C@@H](Cc1ccccc1)NC(=O)Cc1ccc2ccccc2c1)C(=O)N[C@H](Cc1ccc(O)cc1)C(=O)O` [compound 2, Nap-ffk(AcNH-DEDDDLLIG)y] (Ac-DEDDDLLIG-X1), for which the “resistance to proteolysis by enterokinase” value at enterokinase (ENTK) [4] is listed as “proteolytic-resistant”. Also, the “proteolytic products with proteinase K” value at proteinase K [5] is “proteolytically hydrolyzes into four parts, including DEDDDLLIG, DEDDDLL, DEDDDL, and Nap-ffky”. In addition, the “stability towards the proteolysis (acetylated versus non-acetylated branch)” value on proteinase K [5] (proteinase K, compared with 1) is given as “enhanced stability towards the proteolysis”. The “amount cleaved to Nap-ffky” value in data set [6] was found to be 39%.

Consider `CC[C@H](C)[C@H](NC(=O)[C@H](CC(C)C)NC(=O)[C@H](CC(C)C)NC(=O)[C@H](CC(=O)O)NC(=O)[C@H](CC(=O)O)NC(=O)[C@H](CC(=O)O)NC(=O)[C@H](CCC(=O)O)NC(=O)[C@@H](N)CC(=O)O)C(=O)NCC(=O)NCCCC[C@@H](NC(=O)[C@@H](Cc1ccccc1)NC(=O)[C@@H](Cc1ccccc1)NC(=O)Cc1ccc2ccccc2c1)C(=O)N[C@H](Cc1ccc(O)cc1)C(=O)O` [compound 1, Nap-ffk(NH2-DEDDDLLIG)y] (H-DEDDDLLIG-X1), for which the values for the cell viability result with HeLa cells and in the data set on Saos-2 cells were “about 90%” and approximately 80%, respectively. For the same compound, on enterokinase (ENTK) [4], the “resistance to proteolysis by enterokinase” value is given as “proteolytic-resistant”. Moreover, the “proteolytic products with proteinase K” value at proteinase K [5] is “undergoes proteolytic cleavage to form DEDDDLLIG and Nap-ffky”. In addition, in data set [6], the “amount cleaved to Nap-ffky” value turned out to be 44%.

As to Nap-ffk(NH2-DEDDDLLIG)y, the fragment found entry in data set [1] was “Nap-ffky, 24 h”; in the data set with proteinase K [2], “DEDDDLLIG, 24 h; also recorded: Nap-ffky, 24 h”. Moreover, the not cleaved result in the data set on enterokinase (ENTK) [3] is reported as “proteolytic-resistant to enterokinase”.
